Tests used:
[1] = background statement, species not given; cited from earlier work
[2] = tested on: spontaneous hypertension SHR rats; experiment: Blood pressure depressing test in rats (tail artery systolic pressure, tail volume method); assay type: in vivo, rat; conditions: for systolic pressure at the tail artery, before administration: baseline before administration, n=10 per group; for antihypertensive effect compared with the blank model group / systolic pressure at the tail artery, 1 week after administration / systolic pressure at the tail artery, 2 weeks after administration / systolic pressure at the tail artery, 3 weeks after administration / systolic pressure at the tail artery, 4 weeks after administration: intragastric; for antihypertensive effect compared with the blank model group: doses as in Table 3; for systolic pressure at the tail artery, 1 week after administration / systolic pressure at the tail artery, 2 weeks after administration / systolic pressure at the tail artery, 3 weeks after administration / systolic pressure at the tail artery, 4 weeks after administration: levamlodipine benzenesulfonate 5 mg/kg·d, indapamide 5 mg/kg·d, compound low-dose 2.5+0.5 mg/kg·d, compound high-dose 2.5+2.5 mg/kg·d
Source text: (§1) Experiment method: 50 health spontaneous hypertension SHR rats (female to male 1:1, weight 200-240 g) were equally divided into 5 groups according to the level of the hypertension (the specific grouping method is as shown in Table 3), and intragastrically administrated with the medicine. For the blood pressure of the rate, the systolic pressure at the tail artery of the rat when being wake and quite was indirectly measured by an electronic blood pressure meter through the tail volume method respectively before administration and at the end of one, two, three, and four weeks after administration. [table]

[3] = tested on: spontaneous hypertension SHR rats; experiment: Edema side effect in the SHR rat blood pressure test; assay type: in vivo; conditions: intragastric
Source text: as §1, with “administration.” for “administration. [table]”

| Molecule | half-life [1] | systolic pressure at the tail artery, before administration [2] | antihypertensive effect compared with the blank model group [2] | systolic pressure at the tail artery, 1 week after administration [2] | systolic pressure at the tail artery, 2 weeks after administration [2] | systolic pressure at the tail artery, 3 weeks after administration [2] | systolic pressure at the tail artery, 4 weeks after administration [2] | occurrence of edema side effect ([3]; doses as in Table 3, up to 4 weeks) | edema incidence rate ([3]; 5 mg levamlodipine benzenesulfonate/kg·d, up to 4 weeks) |
| --- | --- | --- | --- | --- | --- | --- | --- | --- | --- |
| CC1Cc2ccccc2N1NC(=O)c1ccc(Cl)c(S(N)(=O)=O)c1 (stereo not drawn) [Indapamide, indapamide] | 17 h | 27.02 ± 1.39 KPa | significant antihypertensive effect | 26.88 ± 1.38 Kpa | 25.85 ± 1.38 KPa | 25.56 ± 1.35 KPa | 25.36 ± 1.36 KPa | no edema occurred | – |
| levamlodipine benzenesulfonate | – | 26.96 ± 1.29 KPa | significant antihypertensive effect | 26.79 ± 1.31 Kpa | 25.33 ± 1.26 KPa | 24.55 ± 1.28 KPa | 23.87 ± 1.28 KPa | – | 10% |

From patent US8470363B2, “Antihypertensive pharmaceutical composition” (Shihuida Pharmaceuticals Group (JILIN) Ltd., priority 2010, dated 2013)
